Measurements taken from PubChem BioAssay (NCI).
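Five compound concentrations were applied to cells in 96-well plates for 48 hours; endpoints were derived by simple linear interpolation of the resulting dose-response curve. Abbreviation: GI50, concentration required for 50% inhibition of growth. TGI marks complete inhibition of growth.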

How the values were obtained:
Experiment in all cases: DTP human tumour cell line panel, 48 h
[1] = tested on: 786-0 renal
[2] = tested on: A498 renal
[3] = tested on: A549 NSCLC
[4] = tested on: ACHN renal
[5] = tested on: BT-549 breast
[6] = tested on: CAKI-1 renal
[7] = tested on: CCRF-CEM leukemia
[8] = tested on: COLO 205 colon
[9] = tested on: DU-145 prostate
[10] = tested on: HCC-2998 colon
[11] = tested on: HCT-116 colon
[12] = tested on: HCT-15 colon
[13] = tested on: HL-60(TB) leukemia
[14] = tested on: HOP-62 NSCLC
[15] = tested on: HOP-92 NSCLC
[16] = tested on: HS 578T breast
[17] = tested on: IGROV1 ovarian
[18] = tested on: K-562 leukemia
[19] = tested on: KM12 colon
[20] = tested on: LOX IMVI melanoma
[21] = tested on: M14 melanoma
[22] = tested on: MALME-3M melanoma
[23] = tested on: MCF7 breast
[24] = tested on: MDA-MB-231 breast
[25] = tested on: MDA-MB-435
[26] = tested on: MOLT-4 leukemia
[27] = tested on: NCI-H226 lung
[28] = tested on: NCI-H23 lung
[29] = tested on: NCI-H460 lung
[30] = tested on: NCI-H522 lung
[31] = tested on: NCI/ADR-RES ovarian
[32] = tested on: OVCAR-3 ovarian
[33] = tested on: OVCAR-4 ovarian
[34] = tested on: OVCAR-5 ovarian
[35] = tested on: OVCAR-8 ovarian
[36] = tested on: PC-3 prostate
[37] = tested on: RPMI-8226 leukemia
[38] = tested on: RXF 393 renal
[39] = tested on: SF-268 CNS
[40] = tested on: SF-295 CNS
[41] = tested on: SF-539 CNS
[42] = tested on: SK-MEL-2 melanoma
[43] = tested on: SK-MEL-28 melanoma
[44] = tested on: SK-MEL-5 melanoma
[45] = tested on: SK-OV-3 ovarian
[46] = tested on: SN12C renal
[47] = tested on: SNB-19 CNS
[48] = tested on: SNB-75 CNS
[49] = tested on: SR leukemia
[50] = tested on: SW-620 colon
[51] = tested on: T-47D breast
[52] = tested on: TK-10 renal
[53] = tested on: U251 CNS
[54] = tested on: UACC-257 melanoma
[55] = tested on: UACC-62 melanoma
[56] = tested on: UO-31 renal
[57] = tested on: EKVX NSCLC
[58] = tested on: HT29 colon

CNC(=S)N/N=C/CSC/C=N/NC(=S)NC
GI50 [1]: > 100 µM
TGI [1]: > 100 µM
GI50 [2]: > 100 µM
TGI [2]: > 100 µM
GI50 [3]: > 100 µM
TGI [3]: > 100 µM
GI50 [4]: > 100 µM
TGI [4]: > 100 µM
GI50 [5]: > 100 µM
TGI [5]: > 100 µM
GI50 [6]: > 100 µM
TGI [6]: > 100 µM
GI50 [7]: 24.7 µM
TGI [7]: > 100 µM
GI50 [8]: > 100 µM
TGI [8]: > 100 µM
GI50 [9]: > 100 µM
TGI [9]: > 100 µM
GI50 [10]: > 100 µM
TGI [10]: > 100 µM
GI50 [11]: 8.33 µM
TGI [11]: > 100 µM
GI50 [12]: 34.5 µM
TGI [12]: > 100 µM
GI50 [13]: > 62.3 µM
TGI [13]: > 100 µM
GI50 [14]: > 100 µM
TGI [14]: > 100 µM
GI50 [15]: > 100 µM
TGI [15]: > 100 µM
GI50 [16]: > 100 µM
TGI [16]: > 100 µM
TGI [17]: > 100 µM
GI50 [18]: 3.08 µM
TGI [18]: > 100 µM
GI50 [19]: > 100 µM
TGI [19]: > 100 µM
GI50 [20]: > 60.7 µM
TGI [20]: > 100 µM
GI50 [21]: > 100 µM
TGI [21]: > 100 µM
GI50 [22]: > 100 µM
TGI [22]: > 100 µM
GI50 [23]: 1.85 µM
TGI [23]: > 100 µM
GI50 [24]: > 100 µM
TGI [24]: > 100 µM
GI50 [25]: > 100 µM
TGI [25]: > 100 µM
GI50 [26]: > 100 µM
TGI [26]: > 100 µM
GI50 [27]: > 100 µM
TGI [27]: > 100 µM
GI50 [28]: > 100 µM
TGI [28]: > 100 µM
GI50 [29]: > 100 µM
TGI [29]: > 100 µM
GI50 [30]: > 100 µM
TGI [30]: > 100 µM
GI50 [31]: > 100 µM
TGI [31]: > 100 µM
GI50 [32]: > 56.9 µM
TGI [32]: > 100 µM
TGI [33]: > 100 µM
GI50 [34]: > 100 µM
TGI [34]: > 100 µM
GI50 [35]: > 100 µM
TGI [35]: > 100 µM
GI50 [36]: > 100 µM
TGI [36]: > 100 µM
GI50 [37]: > 100 µM
TGI [37]: > 100 µM
GI50 [38]: > 100 µM
TGI [38]: > 100 µM
GI50 [39]: > 100 µM
TGI [39]: > 100 µM
GI50 [40]: > 100 µM
TGI [40]: > 100 µM
GI50 [41]: > 100 µM
TGI [41]: > 100 µM
GI50 [42]: > 100 µM
TGI [42]: > 100 µM
GI50 [43]: > 100 µM
TGI [43]: > 100 µM
GI50 [44]: > 100 µM
TGI [44]: > 100 µM
GI50 [45]: > 100 µM
TGI [45]: > 100 µM
GI50 [46]: > 100 µM
TGI [46]: > 100 µM
GI50 [47]: > 100 µM
TGI [47]: > 100 µM
GI50 [48]: > 100 µM
TGI [48]: > 100 µM
GI50 [49]: 0.799 µM
TGI [49]: > 100 µM
GI50 [50]: 41.1 µM
TGI [50]: > 100 µM
GI50 [51]: 0.667 µM
TGI [51]: > 100 µM
GI50 [52]: > 100 µM
TGI [52]: > 100 µM
GI50 [53]: > 100 µM
TGI [53]: > 100 µM
GI50 [54]: > 100 µM
TGI [54]: > 100 µM
GI50 [55]: > 100 µM
TGI [55]: > 100 µM
GI50 [56]: > 100 µM
TGI [56]: > 100 µM

CC(=O)OC1=C(c2ccccc2)S(=O)(=O)c2ccccc21
TGI [1]: > 100 µM
TGI [2]: > 100 µM
TGI [3]: > 100 µM
TGI [4]: > 100 µM
TGI [5]: > 100 µM
TGI [6]: > 100 µM
TGI [7]: > 100 µM
TGI [8]: > 100 µM
TGI [9]: > 100 µM
TGI [57]: > 100 µM
TGI [10]: > 100 µM
TGI [11]: > 100 µM
TGI [12]: > 100 µM
TGI [13]: > 100 µM
TGI [14]: > 100 µM
TGI [15]: > 100 µM
TGI [16]: > 100 µM
TGI [58]: > 100 µM
TGI [17]: > 100 µM
TGI [18]: > 100 µM
TGI [19]: > 100 µM
TGI [20]: > 100 µM
TGI [21]: > 100 µM
TGI [22]: > 100 µM
TGI [23]: > 100 µM
TGI [24]: > 100 µM
TGI [25]: > 100 µM
TGI [26]: > 100 µM
TGI [27]: > 100 µM
TGI [28]: > 100 µM
TGI [29]: > 100 µM
TGI [30]: > 100 µM
TGI [31]: > 100 µM
TGI [32]: > 100 µM
TGI [33]: > 100 µM
TGI [34]: > 100 µM
TGI [35]: > 100 µM
TGI [36]: > 100 µM
TGI [37]: > 100 µM
TGI [38]: > 100 µM
TGI [39]: > 100 µM
TGI [40]: > 100 µM
TGI [41]: > 100 µM
TGI [42]: > 100 µM
TGI [43]: > 100 µM
TGI [44]: > 100 µM
TGI [47]: > 100 µM
TGI [48]: > 100 µM
TGI [49]: > 100 µM
TGI [50]: > 100 µM
TGI [51]: > 100 µM
TGI [52]: > 100 µM
TGI [53]: > 100 µM
TGI [54]: > 100 µM
TGI [55]: > 100 µM
TGI [56]: > 100 µM
